Our source for the EC50 and CC50 values is ChEMBL document CHEMBL4177524, “Discovery of hepatitis B virus capsid assembly inhibitors leading to a heteroaryldihydropyrimidine based clinical candidate (GLS4)” (Bioorg Med Chem, 2017).

As a reminder, the EC50 is the concentration giving half of the maximal effect. For orientation: CC50 means the concentration at which the toxic effect on the cells reaches its halfway point.

A value given as a limit tells only on which side of the number the result lay.

Series [1] has as its system Hepatitis B virus. Put plainly: Antiviral activity against entecavir-resistant hepatitis B virus harboring reverse transcriptase M204I/S202G/M250V triple mutant infected in human Huh7 cells assessed as reduction in secreted DNA levels measured on day 7 by real-time PCR analysis. The series is classed as functional, organism-based. Particulars: Huh-7, 168 h. A general note: Real-time PCR tracks product formation cycle by cycle.

The test system of series [2] is Hepatitis B virus. Put plainly: Antiviral activity against entecavir-resistant hepatitis B virus harboring reverse transcriptase M204I/S202G/M250V triple mutant infected in human Huh7 cells assessed as reduction in intracellular DNA levels measured on day 7 by real-time PCR analysis. The series is classed as functional, organism-based. The settings on record: Huh-7, 168 h.

Series [3] can be described thus: Cytotoxicity in human HepG2.215 cells assessed as reduction in cell viability after 5 days by CCK8 assay. The series is classed as cell-based, HepG2 2.2.15. The settings on record: HepG2.2.15 cells. A general note: Tetrazolium dyes change colour on reduction, which living cells bring about.
The test system of series [4] is Hepatitis B virus. Put plainly: Antiviral activity against entecavir-resistant wild type hepatitis B virus infected in human Huh7 cells assessed as reduction in secreted DNA levels measured on day 7 by real-time PCR analysis. It counts as functional, organism-based. Particulars: Huh-7, 168 h.
Series [5] relates to Hepatitis B virus. Put plainly: Antiviral activity against entecavir-resistant hepatitis B virus harboring reverse transcriptase M204I/S202G double mutant infected in human Huh7 cells assessed as reduction in secreted DNA levels measured on day 7 by real-time PCR analysis. The series is classed as functional, organism-based. The settings on record: Huh-7, 168 h.
The subject of series [6] is Hepatitis B virus. Put plainly: Antiviral activity against entecavir-resistant hepatitis B virus harboring reverse transcriptase M204I/S202G double mutant infected in human Huh7 cells assessed as reduction in intracellular DNA levels measured on day 7 by real-time PCR analysis. It counts as functional, organism-based. Particulars: Huh-7, 168 h.
Series [7] relates to Hepatitis B virus. Put plainly: Antiviral activity against entecavir-resistant wild type hepatitis B virus infected in human Huh7 cells assessed as reduction in intracellular DNA levels measured on day 7 by real-time PCR analysis. The series is classed as functional, organism-based. Particulars: Huh-7, 168 h.

Consider `C=C1[C@H](CO)[C@@H](O)C[C@@H]1n1cnc2c(=O)[nH]c(N)nc21`, for which the EC50 in series [1] is greater than 20 µM; in series [2] it was greater than 20 µM; in series [4], 0.014 µM; in series [5] it was greater than 20 µM; in series [6], greater than 20 µM; in series [7] it was 0.013 µM. The CC50 at 120 h in series [3] came out at 30 µM.
